This note sets out measurements from patent US20210179561A1, “ACID ADDITION SALTS OF APOMORPHINE, PHARMACEUTICAL COMPOSITIONS CONTAINING THE SAME, AND METHODS OF USING THE SAME” (Sunovion Pharmaceuticals Inc., priority 2018, published 2021).

Data set [1] can be described thus: physchem. To be noted: water.
The nature of data set [2]: Intrinsic dissolution (Wood's apparatus, HPLC) in pH 4.5 acetate buffer or artificial saliva. The settings on record: for dissolution rates compared with apomorphine glycolate and apomorphine sulfamate: in words.
Experimental: Samples were quantitated using HPLC.
Dissolution experiments were performed using a VanKel VK7010 dissolution tester equipped with a VK750D heater/circulator. […] Approximately 150 mg of acid addition salt of apomorphine salt were compressed with an applied load of approximately 1000 pounds for 1 minute in the Wood's apparatus using a hydraulic press. The dissolution medium was either pH 4.5 acetate buffer or artificial saliva. The medium (900 mL) was equilibrated to 37° C.±0.5° C. and degassed by sparging with helium for ca. 2 minutes at the start of each experiment. The disks were rotated at 75 rpm. Sampling of 1 mL aliquots was performed at the given timepoints using a 10 mL syringe equipped with a stainless steel cannula.
The sample aliquots were analyzed by HPLC for acid addition salt of apomorphine content. HPLC analyses were performed using an Agilent 1100 series liquid chromatograph equipped with a diode array or variable wavelength detector, degasser, quaternary pump, and an autosampler. The chromatographic column was a 4.6×50 mm Luna C18(2) column with 5 μm packing (Phenomenex). The column temperature was set to 25.0° C., and the detector wavelength was 274 nm. The autosampler temperature was set to 5.0° C. The injection volume was 25.0 μL. Mobile phase was 80:20 0.2% trifluoroacetic acid:acetonitrile.
Intrinsic dissolution experiments were conducted in duplicate for apomorphine hydrochloride salt in pH 4.5 acetate buffer and artificial saliva. Aliquots (1 mL) were drawn from the dissolution vessel at time intervals indicated in Table 6, transferred to an HPLC vial, and the dissolution values (mass per unit area) of the apomorphine salt was determined for each aliquot (see Table 6). The determined dissolution values were plotted against the time intervals, and the slope of the linear curve was determined. This slope corresponds to the calculated intrinsic dissolution rate (IDR) for the apomorphine salt.
Data set [3] is described as follows: Dynamic vapor sorption/desorption (DVS). It counts as physicochemical. To be noted: for DVS weight change at 5% equilibration: 5% RH equilibration; for DVS weight loss from 95 to 5% RH: desorption 95 to 5% RH; for DVS weight gain from 5 to 95% RH: sorption 5 to 95% RH. The protocol:
Dynamic vapor sorption (DVS) data were collected on a VTI SGA-100 Vapor Sorption Analyzer. NaCl and PVP were used as calibration standards. Samples were not dried prior to analysis. Sorption and desorption data were collected over a range from 5% to 95% RH at 10% RH increments under a nitrogen purge. The equilibrium criterion used for analysis was less than 0.0100% weight change in 5 minutes with a maximum equilibration time of 3 hours. Data were not corrected for the initial moisture content of the samples.

The conditions of data set [4]: solution from aqueous solubility test.
The nature of data set [5]: Approximate aqueous solubility of apomorphine salts. The settings on record: water.
Where [6] appears, read: Artificial saliva, 37° C., Table 5 (mean of two tests except glycolate).
Where [7] appears, read: pH 4.5 acetate buffer, 37° C., Table 5 (mean of two tests except glycolate).

Counter-ions that a name gives are not always drawn.

Broadly, the solubility is how much of the substance goes into solution per volume. Low readings indicate a poorly soluble substance, high ones a readily soluble substance. As for `CN1CCc2cccc3c2[C@H]1Cc1ccc(O)c(O)c1-3` [Hydrochloride, apomorphine hydrochloride, reference compound], the solubility in data set [1] is roughly 21 mg/mL. The IDR in data set [2] (setting [6]) was 0.582 mg/cm^2/min; in data set [2] (setting [7]), 2.643 mg/cm^2/min. Further, in data set [2], the “dissolution rates compared with apomorphine glycolate and apomorphine sulfamate” value was “significantly lower”.
Turning to `CC(C)C(=O)O.CN1CCc2cccc3c2C1Cc1ccc(O)c(O)c1-3` (stereo not shown) [Isobutyrate, apomorphine isobutyrate], in data set [3], the “DVS weight change at 5% equilibration” value came to 0.0%, the “DVS weight loss from 95 to 5% RH” value is 0.2% and the “DVS weight gain from 5 to 95% RH” value is 0.1%. The IDR in data set [2] (setting [6]) is 0.305 mg/cm^2/min. The “dissolution rates compared with apomorphine glycolate and apomorphine sulfamate” value in data set [2] is on record as “significantly lower”. The IDR in data set [2] (setting [7]) is 1.576 mg/cm^2/min.
As to apomorphine glutarate, in data set [4], the “Approximate pH of Aqueous Solution” value is given as 6. In addition, in data set [5], the “Approximate Aqueous Solubility” value is 3 mg/mL.
Consider apomorphine glycolate, for which the “DVS weight change at 5% equilibration” value in data set [3] amounted to 0.0%. Also, in data set [3], the “DVS weight loss from 95 to 5% RH” value was found to be 0.5%. In data set [3], the “DVS weight gain from 5 to 95% RH” value amounted to 0.5%. Besides, the “Dissolution in pH 4.5 Acetate Buffer” value in data set [2] (1 min, single experiment) was determined as 14.548 mg/cm^2; in data set [2] (3 min, single experiment) it was 38.801 mg/cm^2; in data set [2] (3.5 min, single experiment), 51.432 mg/cm^2; in data set [2] (4 min, single experiment) it was 72.492 mg/cm^2; in data set [2] (4.5 min, single experiment), 89.739 mg/cm^2. In addition, the “Dissolution in Artificial Saliva” value is recorded as 42.192 mg/cm^2 in data set [2] (3 min, single experiment); 47.686 mg/cm^2 in data set [2] (3.5 min, single experiment); 53.878 mg/cm^2 in data set [2] (4 min, single experiment); 58.232 mg/cm^2 in data set [2] (4.5 min, single experiment). In addition, the IDR worked out at 10.862 mg/cm^2/min in data set [2] (setting [6]); 10.862 mg/cm^2/min in data set [2] (artificial saliva, single experiment); 34.775 mg/cm^2/min in data set [2] (setting [7]); 34.775 mg/cm^2/min in data set [2] (pH 4.5 acetate buffer, single experiment).
On to apomorphine methylbenzoate, for which the “Approximate Aqueous Solubility” value in data set [5] is given as less than 1 mg/mL.
With apomorphine sulfamate, in data set [3], the “DVS weight change at 5% equilibration” value came out at 0.0% and the “DVS weight loss from 95 to 5% RH” value is 25.4%. Also, the “DVS weight gain from 5 to 85% RH” value in data set [3] (sorption 5 to 85% RH) is given as 1.0%. Moreover, the IDR in data set [2] (setting [6]) came to 16.873 mg/cm^2/min. This compound gave an IDR in data set [2] (setting [7]) of 19.598 mg/cm^2/min.
